Data from patent US10160747B2, “Compounds and methods for kinase modulation, and indications therefor” (Plexxikon Inc., priority 2016, dated 2018).
pIC50: −log10 of the molar value.

Experiments:
[1] = target: T1, FLT3-ITD (Homo sapiens, UniProt P36888); assay: FLT3-ITD recombinant enzyme kinase assay (AlphaScreen); format: biochemical; conditions: 8 pt; read-out: FLT3_ITD 8 pt: IC50
T1 sequence (P36888 1-993): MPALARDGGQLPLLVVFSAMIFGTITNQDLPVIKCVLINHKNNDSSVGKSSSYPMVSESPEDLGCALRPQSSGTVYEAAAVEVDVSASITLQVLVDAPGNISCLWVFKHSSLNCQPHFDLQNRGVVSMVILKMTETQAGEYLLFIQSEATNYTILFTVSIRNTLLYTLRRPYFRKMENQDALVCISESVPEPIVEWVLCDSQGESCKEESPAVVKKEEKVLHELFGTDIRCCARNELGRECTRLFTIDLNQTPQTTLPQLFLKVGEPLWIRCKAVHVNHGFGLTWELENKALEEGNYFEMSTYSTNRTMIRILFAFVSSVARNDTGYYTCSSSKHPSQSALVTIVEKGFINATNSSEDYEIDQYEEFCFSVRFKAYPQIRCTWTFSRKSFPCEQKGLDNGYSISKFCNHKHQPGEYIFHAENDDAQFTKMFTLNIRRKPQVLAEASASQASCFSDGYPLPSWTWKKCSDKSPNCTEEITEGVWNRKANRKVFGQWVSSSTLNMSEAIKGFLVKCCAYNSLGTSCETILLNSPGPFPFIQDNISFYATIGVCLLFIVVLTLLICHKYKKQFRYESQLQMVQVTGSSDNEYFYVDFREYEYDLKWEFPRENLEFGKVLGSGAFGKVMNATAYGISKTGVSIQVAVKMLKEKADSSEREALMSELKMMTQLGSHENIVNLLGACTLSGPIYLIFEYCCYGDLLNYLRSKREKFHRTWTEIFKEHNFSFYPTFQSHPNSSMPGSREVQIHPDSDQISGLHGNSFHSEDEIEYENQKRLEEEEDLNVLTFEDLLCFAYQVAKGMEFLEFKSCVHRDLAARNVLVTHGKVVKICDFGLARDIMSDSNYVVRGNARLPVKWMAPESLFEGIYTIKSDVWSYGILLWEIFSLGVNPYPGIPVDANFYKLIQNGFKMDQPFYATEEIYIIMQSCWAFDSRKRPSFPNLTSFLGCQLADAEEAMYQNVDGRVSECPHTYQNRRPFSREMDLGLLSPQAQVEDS
Procedure, shortened: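 Kinase activity of recombinant FLT3-ITD, FLT3-D835Y and c-KIT was followed via phosphotyrosine formation on a 30 nM biotin-peptide substrate, captured on streptavidin donor and anti-phosphotyrosine acceptor AlphaScreen beads. ATP was set at 10 μM for FLT3 and 100 μM for c-KIT.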

[2] = test system: MOLM-14 F691L (endogenous FLT3 ITD and transfected FLT3 F691L); assay: MOLM-14 F691L cell proliferation assay (CellTiter-Glo); format: cell-based; conditions: Homo sapiens, MOLM-14, 72 h; 3 d growth, GMean
Procedure, shortened: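 MOLM-14 cells (FLT3 ITD) carrying D835Y or F691L, 1×10^4 cells/well, eight 1:3 dilutions from 1 μM final, 0.2% DMSO, 3 days at 37 °C, 5% CO2. Viability by CellTiter-Glo luminescence (ATP content); IC50 from concentration-response.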

| Compound | pIC50 [1] | pIC50 [2] |
| --- | --- | --- |
| COc1ncc(NC(=O)Cc2ccc(-c3cnc4[nH]c(C#Cc5cncn5C)cc4c3)cc2)cc1C(F)(F)F [Compound P-0227, N-[6-methoxy-5-(trifluoromethyl)-3-pyridyl]-2-[4-[2-[2-(3-methylimidazol-4-yl)ethynyl]-1H-pyrrolo[2,3-b]pyridin-5-yl]phenyl]acetamide] | 5.00 to 10.00 | 5.00 to 10.00 |
| COc1ncc(NC(=O)Cc2ccc(-c3cnc(Nc4cnn(C5CC5)c4)nc3)cc2)cc1C(F)(F)F [Compound P-0234, 2-[4-[2-[(1-cyclopropylpyrazol-4-yl)amino]pyrimidin-5-yl]phenyl]-N-[6-methoxy-5-(trifluoromethyl)-3-pyridyl]acetamide] | 5.00 to 10.00 | 5.00 to 10.00 |
| COCCn1cc(Nc2ncc(-c3ccc(CC(=O)Nc4cnc(OC)c(C(F)(F)F)c4)c(F)c3)cn2)cn1 [Compound P-0265, 2-[2-fluoro-4-[2-[[1-(2-methoxyethyl)pyrazol-4-yl]amino]pyrimidin-5-yl]phenyl]-N-[6-methoxy-5-(trifluoromethyl)-3-pyridyl]acetamide] | 5.00 to 10.00 | 5.00 to 10.00 |
| Cn1cc(Nc2ncc(-c3cc(F)c(CC(=O)Nc4cncc(C(F)(F)F)c4)cc3F)cn2)cn1 [Compound P-0207, 2-[2,5-difluoro-4-[2-[(1-methylpyrazol-4-yl)amino]pyrimidin-5-yl]phenyl]-N-[5-(trifluoromethyl)-3-pyridyl]acetamide] | 5.00 to 10.00 | 5.00 to 10.00 |
| COc1ncc(NC(=O)Cc2ccc(-c3cnc(Nc4cn[nH]c4C)nc3)cc2)cc1C(F)(F)F [Compound P-0221, N-[6-methoxy-5-(trifluoromethyl)-3-pyridyl]-2-[4-[2-[(5-methyl-1H-pyrazol-4-yl)amino]pyrimidin-5-yl]phenyl]acetamide] | 5.00 to 10.00 | 5.00 to 10.00 |
| O=C(Cc1ccc(-c2cnc(Nc3cnn(C4CC4)c3)nc2)cc1)Nc1cncc(C(F)(F)F)c1 [Compound P-0231, 2-[4-[2-[(1-cyclopropylpyrazol-4-yl)amino]pyrimidin-5-yl]phenyl]-N-[5-(trifluoromethyl)-3-pyridyl]acetamide] | 5.00 to 10.00 | 5.00 to 10.00 |

Now from value to molecule:

| pIC50 [1] | pIC50 [2] | Compound |
| --- | --- | --- |
| 5.00 to 10.00 | 5.00 to 10.00 | Cc1ncc(NC(=O)Cc2ccc(-c3cnc(Nc4cnn(C5CC5)c4)nc3)cc2)cc1C(F)(F)F [Compound P-0232, 2-[4-[2-[(1-cyclopropylpyrazol-4-yl)amino]pyrimidin-5-yl]phenyl]-N-[6-methyl-5-(trifluoromethyl)-3-pyridyl]acetamide] |
| 5.00 to 10.00 | 5.00 to 10.00 | COc1ncc(NC(=O)Cc2ccc(-c3cnc4[nH]nc(N)c4c3)c(F)c2)cc1C(F)(F)F [Compound P-0203, 2-[4-(3-amino-1H-pyrazolo[3,4-b]pyridin-5-yl)-3-fluoro-phenyl]-N-[6-methoxy-5-(trifluoromethyl)-3-pyridyl]acetamide] |
| 5.00 to 10.00 | 5.00 to 10.00 | Cc1ncc(NC(=O)Cc2ccc(-c3cnc(Nc4cnn(C5CC5)c4)nc3)cc2F)cc1C(F)(F)F [Compound P-0239, 2-[4-[2-[(1-cyclopropylpyrazol-4-yl)amino]pyrimidin-5-yl]-2-fluoro-phenyl]-N-[6-methyl-5-(trifluoromethyl)-3-pyridyl]acetamide] |
| 5.00 to 10.00 | 5.00 to 10.00 | COCCn1cc(Nc2ncc(-c3ccc(CC(=O)Nc4cncc(C(F)(F)F)c4)c(F)c3)cn2)cn1 [Compound P-0267, 2-[2-fluoro-4-[2-[[1-(2-methoxyethyl)pyrazol-4-yl]amino]pyrimidin-5-yl]phenyl]-N-[5-(trifluoromethyl)-3-pyridyl]acetamide] |
| 5.00 to 10.00 | 5.00 to 10.00 | CCn1cc(Nc2ncc(-c3ccc(CC(=O)Nc4cc(C(F)(F)F)ccn4)cc3)cn2)cn1 [Compound P-0250, 2-[4-[2-[(1-ethylpyrazol-4-yl)amino]pyrimidin-5-yl]phenyl]-N-[4-(trifluoromethyl)-2-pyridyl]acetamide] |
| 5.00 to 10.00 | 5.00 to 10.00 | Cn1cnc(Nc2ncc(-c3ccc(CC(=O)Nc4cc(C(F)(F)F)ccn4)cc3)cn2)c1 [Compound P-0022, 2-[4-[2-[(1-methylimidazol-4-yl)amino]pyrimidin-5-yl]phenyl]-N-[4-(trifluoromethyl)-2-pyridyl]acetamide] |
| 5.00 to 10.00 | 5.00 to 10.00 | CCn1cc(Nc2ncc(-c3ccc(CC(=O)Nc4ccc(C(F)(F)F)cn4)cc3)cn2)cn1 [Compound P-0251, 2-[4-[2-[(1-ethylpyrazol-4-yl)amino]pyrimidin-5-yl]phenyl]-N-[5-(trifluoromethyl)-2-pyridyl]acetamide] |
